18 compounds from patent US11912703B2, “6-azaindole compounds” (BRISTOL-MYERS SQUIBB COMPANY, priority 2017, dated 2024) can be followed below.

One assay concerns the target human TLR7 (Homo sapiens (Human), UniProt Q9NYK1). The experiment in a line: TLR7 inhibition reporter assay (HEK-Blue SEAP). The conditions noted are these: HEK-Blue cells overexpressing human TLR7, gardiquimod 7.5 μM stimulation. Type of assay: cell-based.
The next assay has as its target human TLR8 (Homo sapiens (Human), UniProt Q9NR97). The experiment in a line: TLR8 inhibition reporter assay (HEK-Blue SEAP).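 Also: SEAP driven by IFN-β minimal promoter with five NF-κB and AP-1 sites, compounds tested 0.05 nM to 50 µM, 22 h incubation, inhibition relative to agonist plus DMSO wells.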 The conditions noted are these: read-out: TLR8 IC50; HEK-Blue cells overexpressing human TLR8, R848 15.9 μM stimulation, SEAP reporter. On the technique in general: Reporter assays use an easily measured gene product as a stand-in for the process of interest.

In another assay the target is human TLR9 (Homo sapiens (Human), UniProt Q9NR96). The experiment in a line: TLR9 inhibition reporter assay (HEK-Blue SEAP).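 Also: SEAP driven by IFN-β minimal promoter carrying five NF-κB and AP-1 sites, 22 h at 37 °C, compounds 0.05 nM–50 µM, inhibition scaled between agonist-plus-DMSO and reference-inhibitor wells.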 The settings on record: read-out: TLR9 IC50; HEK-Blue cells overexpressing human TLR9, ODN2006 5 nM stimulation, SEAP reporter.
Chain of human TLR9 (Q9NR96 26-1032): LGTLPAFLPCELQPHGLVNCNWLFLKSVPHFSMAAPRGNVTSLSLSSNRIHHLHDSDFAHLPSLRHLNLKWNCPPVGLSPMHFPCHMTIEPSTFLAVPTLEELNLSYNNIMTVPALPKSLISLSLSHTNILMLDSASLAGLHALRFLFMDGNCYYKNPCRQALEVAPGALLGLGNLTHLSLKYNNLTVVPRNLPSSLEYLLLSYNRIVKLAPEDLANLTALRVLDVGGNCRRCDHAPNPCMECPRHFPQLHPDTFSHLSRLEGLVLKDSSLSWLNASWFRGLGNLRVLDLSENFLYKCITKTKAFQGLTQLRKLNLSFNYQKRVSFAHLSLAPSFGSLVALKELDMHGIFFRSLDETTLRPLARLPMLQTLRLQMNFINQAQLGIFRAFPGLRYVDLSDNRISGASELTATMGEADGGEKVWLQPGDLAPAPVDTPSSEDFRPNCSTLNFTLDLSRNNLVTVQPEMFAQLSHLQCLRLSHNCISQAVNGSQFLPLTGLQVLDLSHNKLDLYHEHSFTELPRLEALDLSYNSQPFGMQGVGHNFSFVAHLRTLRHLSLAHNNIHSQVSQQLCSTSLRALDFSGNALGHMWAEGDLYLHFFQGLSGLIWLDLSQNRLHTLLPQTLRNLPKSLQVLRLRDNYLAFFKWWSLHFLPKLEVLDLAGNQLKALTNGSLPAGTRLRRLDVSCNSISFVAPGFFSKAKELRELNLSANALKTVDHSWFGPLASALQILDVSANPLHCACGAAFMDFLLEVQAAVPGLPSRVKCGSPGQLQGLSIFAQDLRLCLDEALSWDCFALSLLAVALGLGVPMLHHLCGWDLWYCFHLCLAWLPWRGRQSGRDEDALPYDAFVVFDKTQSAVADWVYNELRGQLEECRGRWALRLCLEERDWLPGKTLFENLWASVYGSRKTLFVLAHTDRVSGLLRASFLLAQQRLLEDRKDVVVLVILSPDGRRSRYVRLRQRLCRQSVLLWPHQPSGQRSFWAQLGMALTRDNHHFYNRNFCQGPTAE

Chain of human TLR8 (Q9NR97 27-1041): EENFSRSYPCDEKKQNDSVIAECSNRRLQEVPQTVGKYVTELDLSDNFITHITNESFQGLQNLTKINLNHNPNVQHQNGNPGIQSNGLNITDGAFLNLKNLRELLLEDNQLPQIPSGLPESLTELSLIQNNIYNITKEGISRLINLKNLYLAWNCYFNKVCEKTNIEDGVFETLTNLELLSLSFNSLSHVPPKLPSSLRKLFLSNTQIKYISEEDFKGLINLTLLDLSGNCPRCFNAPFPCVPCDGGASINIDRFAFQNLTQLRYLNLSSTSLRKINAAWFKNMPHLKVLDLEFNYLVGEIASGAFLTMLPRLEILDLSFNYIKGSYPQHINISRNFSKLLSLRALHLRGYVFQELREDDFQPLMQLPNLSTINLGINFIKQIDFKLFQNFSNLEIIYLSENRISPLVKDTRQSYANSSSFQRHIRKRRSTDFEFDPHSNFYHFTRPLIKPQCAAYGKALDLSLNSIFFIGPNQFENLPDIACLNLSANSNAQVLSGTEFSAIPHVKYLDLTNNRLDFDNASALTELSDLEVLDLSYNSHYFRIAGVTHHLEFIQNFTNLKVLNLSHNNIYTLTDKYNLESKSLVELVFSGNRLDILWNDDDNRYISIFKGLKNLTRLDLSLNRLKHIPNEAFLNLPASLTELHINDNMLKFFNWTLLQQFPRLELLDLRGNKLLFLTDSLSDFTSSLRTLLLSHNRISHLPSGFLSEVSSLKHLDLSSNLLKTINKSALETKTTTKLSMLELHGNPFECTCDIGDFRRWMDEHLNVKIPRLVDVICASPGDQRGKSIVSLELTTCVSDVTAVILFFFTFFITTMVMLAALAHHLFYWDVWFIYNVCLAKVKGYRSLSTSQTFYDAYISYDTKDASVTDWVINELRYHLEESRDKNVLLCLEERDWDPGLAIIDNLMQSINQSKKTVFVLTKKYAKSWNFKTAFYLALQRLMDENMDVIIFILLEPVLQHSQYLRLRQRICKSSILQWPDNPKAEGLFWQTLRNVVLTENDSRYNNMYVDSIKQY
Chain of human TLR7 (Q9NYK1 27-1049): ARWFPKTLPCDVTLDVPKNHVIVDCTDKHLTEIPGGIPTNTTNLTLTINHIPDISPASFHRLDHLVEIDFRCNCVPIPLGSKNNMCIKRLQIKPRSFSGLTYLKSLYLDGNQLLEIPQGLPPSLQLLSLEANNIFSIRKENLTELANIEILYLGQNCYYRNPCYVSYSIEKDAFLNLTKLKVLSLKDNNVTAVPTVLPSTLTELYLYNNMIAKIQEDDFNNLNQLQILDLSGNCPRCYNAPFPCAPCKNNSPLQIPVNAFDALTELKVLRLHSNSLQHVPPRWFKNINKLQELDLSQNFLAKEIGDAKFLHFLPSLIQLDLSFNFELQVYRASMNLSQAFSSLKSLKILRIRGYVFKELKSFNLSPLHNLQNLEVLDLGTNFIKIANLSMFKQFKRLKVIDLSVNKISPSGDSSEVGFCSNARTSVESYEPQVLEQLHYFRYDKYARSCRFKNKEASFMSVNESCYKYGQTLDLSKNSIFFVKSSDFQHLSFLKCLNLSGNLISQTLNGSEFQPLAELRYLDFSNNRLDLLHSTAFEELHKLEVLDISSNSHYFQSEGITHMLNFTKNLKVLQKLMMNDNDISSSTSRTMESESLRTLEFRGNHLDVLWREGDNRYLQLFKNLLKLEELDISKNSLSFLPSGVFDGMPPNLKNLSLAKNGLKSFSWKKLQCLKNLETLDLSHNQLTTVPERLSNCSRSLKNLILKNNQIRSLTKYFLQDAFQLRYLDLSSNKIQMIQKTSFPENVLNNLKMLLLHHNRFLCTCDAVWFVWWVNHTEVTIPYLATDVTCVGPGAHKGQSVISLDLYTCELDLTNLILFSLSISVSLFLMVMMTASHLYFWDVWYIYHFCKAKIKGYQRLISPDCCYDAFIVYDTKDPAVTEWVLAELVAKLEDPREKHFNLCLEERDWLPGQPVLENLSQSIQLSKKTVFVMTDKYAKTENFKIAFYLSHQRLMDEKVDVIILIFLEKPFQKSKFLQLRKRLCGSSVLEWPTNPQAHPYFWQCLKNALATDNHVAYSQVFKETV
Procedure for human TLR7: (§1) HEK-Blue™-cells (Invivogen) overexpressing human TLR7, TLR8 or TLR9 receptors were used for screening inhibitors of these receptors using an inducible SEAP (secreted embryonic alkaline phosphatase) reporter gene under the control of the IFN-β minimal promoter fused to five NF-κB and AP-1-binding sites. Briefly, cells are seeded into Greiner 384 well plates (15000 cells per well for TLR7, 20,000 for TLR8 and 25,000 for TLR9) and then treated with test compounds in DMSO to yield a final dose response concentration range of 0.05 nM-50 μM. After a 30 minute compound pre-treatment at room temperature, the cells are then stimulated with a TLR7 ligand (gardiquimod at a final concentration of 7.5 μM), TLR8 ligand (R848 at a final concentration of 15.9 μM) or TLR9 ligand (ODN2006 at a final concentration of 5 nM) to activate NF-κB and AP-1 which induce the production of SEAP. After a 22 hour incubation at 37° C., 500 CO2, SEAP levels are determined with the addition of HEK-Blue™ Detection reagent (Invivogen), a cell culture medium that allows for detection of SEAP, according to manufacturer's specifications.
Procedure for human TLR8: as §1

In the case of `Cc1cc(-c2[nH]c3cnc(C4CCN(C(=O)CN(C)C)CC4)c(F)c3c2C(C)C)cc(C)n1` [Example 185], the figures for the IC50 against human TLR7, at human TLR8 and on human TLR9 were 6.2 nM, 7.8 nM and 1550 nM, respectively.
Taken in the same sequence, the figures for `COc1cc(-c2[nH]c3cnc(N4CCN(CCS(C)(=O)=O)CC4)c(C)c3c2C(C)C)cn2ncnc12` [Example 186] were 12 nM, 6.6 nM and 26500 nM.
Regarding `Cc1cc(-c2[nH]c3cnc(C4CCN(C5CCOCC5)CC4)c(F)c3c2C(C)C)cn2ncnc12` [Example 187], the values for the IC50 at human TLR7, on human TLR8 and at human TLR9 were 2.1 nM, 2 nM and 1530 nM, respectively.
Consider `COc1cc(-c2[nH]c3cnc(N4CCC(NC5(C)COC5)CC4)c(F)c3c2C(C)C)cn2ncnc12` [Example 188], for which the IC50 against human TLR7 is 1.6 nM; on human TLR8, 0.21 nM; at human TLR9, 5160 nM.
Taken in the same sequence, the figures for `COc1cc(-c2[nH]c3cnc(N4CCC(N(C)CC(F)F)CC4)c(F)c3c2C(C)C)cn2ncnc12` [Example 189] were 20 nM, 16 nM and 30700 nM.
In the case of `COc1cc(-c2[nH]c3cnc(N4CCC(NC5CCOC5)CC4)c(F)c3c2C(C)C)cn2ncnc12` (stereo not drawn) [Example 190], the IC50 against human TLR7 came out at 0.77 nM; on human TLR8, 0.22 nM; at human TLR9 it was 874 nM.
`CNC1CCN(c2ncc3[nH]c(-c4cc(OC)c5ncnn5c4)c(C(C)C)c3c2F)CC1` [Example 191]: the IC50 at human TLR7 worked out at 0.91 nM; on human TLR8 it was 1.1 nM; on human TLR9, 3500 nM.
Taken in the same sequence, the figures for `COc1cc(-c2[nH]c3cnc(C4CCC(NCC5(C)COC5)CC4)c(F)c3c2C(C)C)cn2ncnc12` (stereo not drawn) [Example 193] were 0.84 nM, 0.4 nM and 1250 nM.
Taken in the same sequence, the figures for `Cc1cc(-c2[nH]c3cnc(N4CCC(N(C)CC(C)(C)C)CC4)c(F)c3c2C(C)C)cn2ncnc12` [Example 196] were 3 nM, 1.1 nM and 2080 nM.
On to `COc1cc(-c2[nH]c3cnc(C4CCC(N(C)C5COC5)CC4)c(F)c3c2C(C)C)cn2ncnc12` (stereo not drawn) [Example 197], for which the IC50 is 0.3 nM against human TLR7, 0.44 nM on human TLR8 and 1570 nM on human TLR9.
For the compound `Cc1cc(-c2[nH]c3cnc(C4CCC(NC(C)C)CC4)c(F)c3c2C(C)C)cn2ncnc12` (stereo not drawn) [Example 198], the IC50 at human TLR7 worked out at 2.4 nM; on human TLR8, 2.6 nM; on human TLR9, 1150 nM.
Turning to `CCN(C)C1CCC(c2ncc3[nH]c(-c4cc(C)c5ncnn5c4)c(C(C)C)c3c2F)CC1` (stereo not drawn) [Example 199], the IC50 against human TLR7 was found to be 0.83 nM; at human TLR8, 2 nM; at human TLR9, 1210 nM.
On to `Cc1c(-c2[nH]c3cnc(C4CCC(NCC(C)(C)C)CC4)c(F)c3c2C(C)C)cn2ncnc2c1C` (stereo not drawn) [Example 200], for which the figures for the IC50 against human TLR7, at human TLR8 and at human TLR9 were 3 nM, 1.1 nM and 8780 nM, respectively.
The like results for `COc1cc(-c2[nH]c3cnc(N4CCC(NC5CCOCC5)CC4)c(C)c3c2C(C)C)cn2ncnc12` [Example 201] were, in that order, 0.49 nM, 0.52 nM and 1790 nM.
Taken in the same sequence, the figures for `COc1cc(-c2[nH]c3cnc(N4CCC(NC(C)C)CC4)c(C)c3c2C(C)C)cn2ncnc12` [Example 202] were 0.35 nM, 1.2 nM and 2460 nM.
As for `Cc1c(-c2[nH]c3cnc(C4CCC(NCC5(C)COC5)CC4)c(C)c3c2C(C)C)cn2ncnc2c1C` (stereo not drawn) [Example 203], the concentration for half-maximal inhibition (IC50) at human TLR7 was found to be 27 nM; on human TLR8, 9.3 nM; on human TLR9, 513 nM.
Taken in the same sequence, the figures for `Cc1c(-c2[nH]c3cnc(C4CCC(NCC5(C)COC5)CC4)c(C)c3c2C(C)C)cn2ncnc2c1C` (stereo not drawn) [Example 204] were 6.6 nM, 3.1 nM and 466 nM.
As for `Cc1c(-c2[nH]c3cnc(N4CCC(NC5CCOCC5)CC4)c(C)c3c2C(C)C)cn2ncnc2c1C` [Example 205], the IC50 turned out to be 1.2 nM against human TLR7, 0.55 nM on human TLR8 and 600 nM at human TLR9.

As usually defined, the IC50 is the concentration at which inhibition is half-maximal.
